Measurements: PubChem BioAssay AID330 (DTP/NCI, 2004)
Values joined by “and” are separate entries in the source; they are usually repeats but may differ in a detail not shown here. Identical values can stand only once. Toxic doses and inconclusive results are not listed. How the source made its calls: active means survival T/C of 150% or more; inactive means T/C below 125% in these data.

Test system: P388 leukemia ip, CD2F1 mice, survival T/C
Assay: NCI In Vivo Anticancer Drug Screen. Data for tumor model P388 Leukemia (intraperitoneal) in CD2F1 (CDF1) mice
Conditions: endpoint: median survival time, higher = longer survival
In short: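 Mice carrying the transplanted tumor received test compound or vehicle. Survival was recorded in each group, and the value is the treated-group measurement divided by that of the vehicle-treated control group.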

[1] = dose: 12.5 mg/kg/injection, schedule: Q01DX009 (ip), vehicle: Klucel (hydroxypropylcellulose) (HPC)
[2] = dose: 25.0 mg/kg/injection, schedule: Q01DX009 (ip), vehicle: Klucel (hydroxypropylcellulose) (HPC)
[3] = dose: 50.0 mg/kg/injection, schedule: Q01DX009 (ip), vehicle: Klucel (hydroxypropylcellulose) (HPC)
[4] = dose: 100.0 mg/kg/injection, schedule: Q01DX009 (ip), vehicle: Klucel (hydroxypropylcellulose) (HPC)
[5] = dose: 50.0 mg/kg/injection, schedule: Q01DX009 (ip), vehicle: saline
[6] = dose: 100.0 mg/kg/injection, schedule: Q01DX001 (ip), vehicle: Klucel (hydroxypropylcellulose) (HPC)
[7] = dose: 200.0 mg/kg/injection, schedule: Q01DX001 (ip), vehicle: Klucel (hydroxypropylcellulose) (HPC)
[8] = dose: 400.0 mg/kg/injection, schedule: Q01DX001 (ip), vehicle: Klucel (hydroxypropylcellulose) (HPC)
[9] = dose: 50.0 mg/kg/injection, schedule: Q01DX005 (ip), vehicle: saline
[10] = dose: 100.0 mg/kg/injection, schedule: Q01DX005 (ip), vehicle: saline
[11] = dose: 200.0 mg/kg/injection, schedule: Q01DX005 (ip), vehicle: saline
[12] = dose: 50.0 mg/kg/injection, schedule: Q01DX009 (ip), vehicle: saline with Tween-80
[13] = dose: 100.0 mg/kg/injection, schedule: Q01DX009 (ip), vehicle: saline with Tween-80
[14] = dose: 200.0 mg/kg/injection, schedule: Q01DX009 (ip), vehicle: saline with Tween-80
[15] = dose: 60.0 mg/kg/injection, schedule: Q01DX005 (ip), vehicle: Klucel (hydroxypropylcellulose) (HPC)
[16] = dose: 120.0 mg/kg/injection, schedule: Q01DX005 (ip), vehicle: Klucel (hydroxypropylcellulose) (HPC)
[17] = dose: 240.0 mg/kg/injection, schedule: Q01DX005 (ip), vehicle: Klucel (hydroxypropylcellulose) (HPC)

Measured: T/C

NS(=O)(=O)c1ccc(NC(=O)CCl)cc1
inactive: [1] 110 % of control | [2] 108 % of control and 120 % of control | [3] 110 % of control and 121 % of control | [4] 121 % of control

CC1C2=C(CCCC2=O)O/C1=N\O (stereo not drawn)
inactive: dose: 100.0 mg/kg/injection, schedule: Q04DX003 (ip), vehicle: Klucel (hydroxypropylcellulose) (HPC) 96 % of control | dose: 200.0 mg/kg/injection, schedule: Q04DX003 (ip), vehicle: Klucel (hydroxypropylcellulose) (HPC) 90 % of control | dose: 400.0 mg/kg/injection, schedule: Q04DX003 (ip), vehicle: Klucel (hydroxypropylcellulose) (HPC) 93 % of control

NCCCCCCN1CCN(c2cccc(Cl)c2)CC1
inactive: [5] 103 % of control and 97 % of control | dose: 100.0 mg/kg/injection, schedule: Q01DX009 (ip), vehicle: saline 114 % of control and 98 % of control | dose: 200.0 mg/kg/injection, schedule: Q01DX009 (ip), vehicle: saline 123 % of control

C/C(=N\NC(N)=Nc1ccccc1)c1ccc2c(c1)Cc1ccccc1-2
inactive: dose: 25.0 mg/kg/injection, schedule: Q04DX002 (ip), vehicle: saline with Tween-80 103 % of control | dose: 50.0 mg/kg/injection, schedule: Q04DX002 (ip), vehicle: saline with Tween-80 94 % of control | dose: 100.0 mg/kg/injection, schedule: Q04DX002 (ip), vehicle: saline with Tween-80 104 % of control

O=C(S)CC1(O)CCCCC12OC2c1ccccc1 (stereo not drawn)
inactive: [6] 99 % of control | [7] 104 % of control | [8] 103 % of control

C1CN(C[C@H]2CO[C@H](CN3CCOCC3)CO2)CCO1
inactive: [9] 91 % of control | [10] 106 % of control | [11] 110 % of control

Cc1nn(C(N)=S)c(C)c1N=Nc1ccc([N+](=O)[O-])cc1
inactive: [6] 104 % of control | [7] 108 % of control | [8] 113 % of control

c1ccc2cc3c(ccc4ccccc43)cc2c1
inactive: dose: 25.0 mg/kg/injection, schedule: Q04DX003 (ip), vehicle: other 99 % of control | [12] 100 % of control | dose: 50.0 mg/kg/injection, schedule: Q04DX003 (ip), vehicle: other 104 % of control | [13] 97 % of control | dose: 100.0 mg/kg/injection, schedule: Q04DX003 (ip), vehicle: other 99 % of control | [14] 103 % of control | dose: 200.0 mg/kg/injection, schedule: Q04DX003 (ip), vehicle: other 96 % of control | dose: 400.0 mg/kg/injection, schedule: Q04DX003 (ip), vehicle: other 96 % of control

CCOC(=O)Nc1cc2c(c(N)n1)N=C(c1ccccc1)CO2
inactive: dose: 25.0 mg/kg/injection, schedule: Q01DX005 (ip), vehicle: saline with Tween-80 102 % of control and 112 % of control

[Br][Hg][CH]1CCC2CCCC1O2 (stereo not drawn)
inactive: [1] 89 % of control | [2] 90 % of control

O=C(CC(O)(C(F)(F)F)C(F)(F)F)CC(O)(C(F)(F)F)C(F)(F)F
inactive: dose: 0.5 mg/kg/injection, schedule: Q04DX003 (ip), vehicle: saline + alcohol 95 % of control | dose: 1.0 mg/kg/injection, schedule: Q04DX003 (ip), vehicle: saline + alcohol 100 % of control | dose: 1.25 mg/kg/injection, schedule: Q04DX003 (ip), vehicle: saline with Tween-80 100 % of control and 95 % of control | dose: 2.0 mg/kg/injection, schedule: Q04DX003 (ip), vehicle: saline + alcohol 90 % of control | dose: 2.5 mg/kg/injection, schedule: Q04DX003 (ip), vehicle: saline with Tween-80 100 % of control | dose: 5.0 mg/kg/injection, schedule: Q04DX003 (ip), vehicle: saline with Tween-80 100 % of control and 91 % of control

COc1ccn(C2CCCO2)c(=O)n1 (stereo not drawn)
inactive: [9] 95 % of control | [10] 100 % of control | [11] 88 % of control

O=C(Oc1ccc(=O)[nH]n1)c1ccccc1
inactive: [15] 102 % of control | [16] 115 % of control | [17] 111 % of control

COc1cc2c(cc1Cc1cc(OC)c(OC)c(OC)c1)OCO2
inactive: [15] 98 % of control | [16] 100 % of control | [17] 98 % of control

CC1(C)N=C(N)N=C(N)N1c1ccc(CN)cc1
inactive: dose: 60.0 mg/kg/injection, schedule: Q01DX005 (ip), vehicle: saline 110 % of control | dose: 120.0 mg/kg/injection, schedule: Q01DX005 (ip), vehicle: saline 103 % of control | dose: 240.0 mg/kg/injection, schedule: Q01DX005 (ip), vehicle: saline 106 % of control

O=C(O)Cc1cnc[nH]1
inactive: dose: 6.25 mg/kg/injection, schedule: Q01DX009 (ip), vehicle: saline 100 % of control | dose: 12.5 mg/kg/injection, schedule: Q01DX009 (ip), vehicle: saline 106 % of control | dose: 25.0 mg/kg/injection, schedule: Q01DX009 (ip), vehicle: saline 97 % of control | [5] 99 % of control

O=P(c1ccccc1)(c1ccccc1)c1ccccc1.[Cl][Sn]([c]1ccccc1)([c]1ccccc1)[c]1ccccc1
inactive: dose: 100.0 mg/kg/injection, schedule: Q04DX003 (ip), vehicle: saline 100 % of control | dose: 200.0 mg/kg/injection, schedule: Q04DX003 (ip), vehicle: saline 106 % of control | dose: 400.0 mg/kg/injection, schedule: Q04DX003 (ip), vehicle: saline 118 % of control

CCOc1c(Cc2ccccc2)c(=O)nc2c(-c3ccccc3)cncn12
inactive: dose: 30.0 mg/kg/injection, schedule: Q01DX005 (ip), vehicle: saline with Tween-80 101 % of control | dose: 60.0 mg/kg/injection, schedule: Q01DX005 (ip), vehicle: saline with Tween-80 86 % of control and 90 % of control | dose: 120.0 mg/kg/injection, schedule: Q01DX005 (ip), vehicle: saline with Tween-80 92 % of control | dose: 240.0 mg/kg/injection, schedule: Q01DX005 (ip), vehicle: saline with Tween-80 87 % of control

O=c1[nH]c2ccccc2nc1CBr
inactive: dose: 1.56 mg/kg/injection, schedule: Q01DX009 (ip), vehicle: saline with Tween-80 109 % of control | dose: 3.13 mg/kg/injection, schedule: Q01DX009 (ip), vehicle: saline with Tween-80 109 % of control | dose: 6.25 mg/kg/injection, schedule: Q01DX009 (ip), vehicle: saline with Tween-80 113 % of control | dose: 8.33 mg/kg/injection, schedule: Q01DX009 (ip), vehicle: saline with Tween-80 118 % of control | dose: 12.5 mg/kg/injection, schedule: Q01DX009 (ip), vehicle: saline with Tween-80 113 % of control and 122 % of control | dose: 18.7 mg/kg/injection, schedule: Q01DX009 (ip), vehicle: saline with Tween-80 118 % of control

C=CCNC(=O)c1ccccc1SC(C)=O
inactive: [12] 117 % of control and 119 % of control | [13] 120 % of control | [14] 114 % of control

C=CCOC(CCC)OCC=C
inactive: [3] 97 % of control | [4] 97 % of control

CC(C)NCCCC(=O)O
inactive: dose: 25.0 mg/kg/injection, schedule: Q01DX009 (ip), vehicle: water 101 % of control | dose: 50.0 mg/kg/injection, schedule: Q01DX009 (ip), vehicle: water 99 % of control | dose: 100.0 mg/kg/injection, schedule: Q01DX009 (ip), vehicle: water 109 % of control | dose: 200.0 mg/kg/injection, schedule: Q01DX009 (ip), vehicle: water 96 % of control | dose: 400.0 mg/kg/injection, schedule: Q01DX009 (ip), vehicle: water 90 % of control

CCCCCCCCCCCCCCCC(=O)N1CCN(C)CC1
inactive: dose: 25.0 mg/kg/injection, schedule: Q01DX009 (ip), vehicle: saline with Tween-80 115 % of control

CN(C)c1ccsc(=S)c1
inactive: dose: 6.25 mg/kg/injection, schedule: Q01DX005 (ip), vehicle: Klucel (hydroxypropylcellulose) (HPC) 102 % of control | dose: 12.5 mg/kg/injection, schedule: Q01DX005 (ip), vehicle: Klucel (hydroxypropylcellulose) (HPC) 101 % of control | dose: 25.0 mg/kg/injection, schedule: Q01DX005 (ip), vehicle: Klucel (hydroxypropylcellulose) (HPC) 105 % of control | dose: 50.0 mg/kg/injection, schedule: Q01DX005 (ip), vehicle: Klucel (hydroxypropylcellulose) (HPC) 98 % of control
